From patent US9346839B2
“Also recorded” adds a separate entry of the source. Where two headings read alike, the source gives them in different places.

What was measured:
[1] = tested on: SK-N-SH cells; assay: ATP levels in Aβ-treated cells; type: cell-based; details: for ATP levels in Aβ-treated cells: 5 μM Aβ1-42 plus 1 μM compound; for ATP levels, inhibitor alone: without Aβ
Description: Forty-eight hour later, ATP levels (μmol mg^−1 protein) were measured in cell lysates.
Adenosine-5′-Triphosphate (ATP) Levels. To determine the effect of ABAD inhibitors on Aβ-induced impairment in energy metabolism, ATP levels were measured. […] ATP levels were measured in the cell lysates. […] Therefore, ABAD inhibitors can block mitochondrial dysfunction mediated by Aβ.

[2] = tested on: mitochondrial permeability transition pore (mPTP); assay: Mitochondria swelling assay in response to Ca2+; set-up: species or system mice; details: for calcium-mediated mitochondrial swelling: with calcium
Description: Isolation of Brain Mitochondria. Brain from mice without white matter was used for mitochondrial isolation. Brain was homogenized in 9 ml of ice-cold EB buffer (1 mmol EDTA, 1-6 mg/ml BSA) using a Dounce homogenizer until no particles could be seen. Homogenates were centrifuged at 1300×g for 5 minutes. Supernatant from this fraction was carefully laid on top of a 15% PERCOLL solution (10 ml) and then centrifuged at 16000 RPM for 10 minutes. The pellet was carefully mixed with 9 ml of mitochondrial buffer (4.098% D-mannitol, 2.56% sucrose, 0.034% K2HPO4, pH 7.3-7.4) and 200 μl of 1% digitonin. After 5 minutes incubation on ice, the mixture was centrifuged at 8000 RPM for 10 minutes. Mitochondrial pellet was washed once with mitochondrial buffer. Subsequently, the mitochondrial pellet was resuspended in 100 μl of mitochondrial buffer and was used for further experiments.
Mitochondria Swelling Assay. A proper amount of mitochondria was resuspended into 1 ml swelling assay buffer (150 mM KCl, 2 mM KH2PO4, 10 mM HEPES, pH 7.4) and energized by 1 mM glutamate and 1 mM malate. Calcium at varying concentrations was added into the assay buffer to trigger mitochondrial swelling. Mitochondrial permeability transition was determined by studying the rate of change in absorbance at 540 nm via a spectrophotometer.
Mitochondrial Swelling in Response to Ca^2+. Given that the Compounds 4, 8 and 15 could inhibit ABAD activity, it was determined whether these same compounds could decrease mitochondrial permeability transition pore (mPTP) formation.

[3] = tested on: mAPP mice; assay: Hippocampal long-term potentiation (LTP) in slices from treated mice; type: in vivo
Description: LTP was induced by theta-burst stimulation (TBS) 20 minutes after baseline recordings in hippocampal slices from Non-Tg mice treated with vehicle (n=9 slices from 3 mice), Non-Tg mice treated with Compound 8 (n=9 slices from 3 mice), mAPP mice treated with vehicle (n=8 slices from 3 mice), and mAPP mice treated with Compound 8 (n=8 slices from 3 mice). LTP is expressed as percentage potentiation of baseline (100%) (FIG. 5A).
LTP is expressed as percentage potentiation of baseline (100%) (FIG. 7A).
Synaptic failure in AD is largely reflected by impaired long-term synaptic plasticity in terms of long-term potentiation (LTP). […] Representative field excitatory post-synaptic potentials (fEPSP) waveforms are provided in FIGS. 5A and 7A and the residual potentiation from fEPSP slopes occurring over the last 5 minutes of LTP recording are provided in FIGS. 5B and 7B.

[4] = target: ABAD (Homo sapiens (Human), UniProt Q99714); assay: Inhibition of reduction of S-acetoacetyl-CoA (SAAC) by ABAD (ABAD enzymatic activity); type: biochemical
Chain of ABAD (Q99714 whole entry): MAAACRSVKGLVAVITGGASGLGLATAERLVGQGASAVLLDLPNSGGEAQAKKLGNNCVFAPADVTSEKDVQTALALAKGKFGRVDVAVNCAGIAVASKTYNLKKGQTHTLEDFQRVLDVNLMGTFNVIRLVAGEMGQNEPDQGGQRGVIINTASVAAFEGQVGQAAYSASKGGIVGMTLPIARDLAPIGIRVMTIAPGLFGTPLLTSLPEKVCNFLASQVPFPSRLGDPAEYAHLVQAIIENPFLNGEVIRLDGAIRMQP
Description: Assay of ABAD Enzymatic Activity. […] Before the assay, all the assay components except SAAC were pre-incubated for 5 minutes, and the reaction started with the addition of SAAC into the reaction mix. The reaction was carried out for a total 6 minutes at room temperature under steady-state conditions, and the decrease of NADH absorbance at 340 nm was determined every 10 seconds. Kinetic data were analyzed by PRISM (Scitech, San Diego, Calif.) to determine IC50 values and Ki.

[5] = tested on: Cells; assay: MTT reduction assay (cell survival and toxicity); type: cell-based; details: 1, 10, 50, 100 μM for 48 to 66 hours, compared to vehicle
Description: Cell Survival and Toxicity Assay. The MTT (3-(4,5-dimethylthiazol-2-yl)-2,5-diphenyltetrazolium bromide) assay, which is widely used to measure cell proliferation and to screen for anticancer drugs, was used for assessing cell viability. Cells were treated with a range of ABAD compounds at 1, 10, 50, and 100 μM for 48 hours and then subjected to MTT reduction assay following the manufacture's instruction.
(§1) Effect of ABAD Inhibitor on Cell Survival and Toxicity. The effect of ABAD inhibitors on cell viability and toxicity was assessed using MTT reduction assay and trypan blue exclusion, which are widely used to assess cell survival and toxicity and to screen for drugs toxicity. Cells were treated with a range of concentrations of ABAD compound (4 and 8) at 1, 10, 50, 100 μM for 48 to 66 hours.

[6] = tested on: Cells; assay: Trypan blue dye exclusion (cell viability and toxicity); type: cell-based; details: 1, 10, 50, 100 μM for 48 to 66 hours, compared to vehicle
Description: The trypan blue dye exclusion is commonly used for measuring cell viability and toxicity. 48-66 hours after treatment of ABAD compounds, the trypan blue exclusion experiments were performed. In brief, cells plated in 96-well plates were washed with the balanced salt solution (Hanks-Balanced Salts/HESS) once, then replaced with HBSS including trypan blue solution to the final concentration of 0.2% (Sigma-Aldrich, St. Louis, Mo.), and mixed thoroughly. After standing at room temperature for 5 minutes, the cells were washed with HBSS again and then maintained in the well with HBSS. Both the stained and unstained cells in each well were counted under a microscope (Nikon E400). The calculated percentage of unstained cells represented the percentage of viable cells. Cell viability(%)=total viable cells (unstained)/total cells (stained and unstained)×100.
as §1

[7] = tested on: mAPP mice; assay: Morris water maze learning and memory in AD transgenic mice; type: in vivo; details: for learning memory: i.p. injection; for swim strategy used to locate the hidden platform: representative swim paths, mAPP mice; for latency to find the hidden platform: treated AD mice compared to untreated AD mice; for number of crossings at the target location / percent of time spent in the target quadrant: treated mAPP mice vs untreated mAPP mice, probe trial
Description: Wild-type mice (Non Tg) were also administered Compound 8 (n=5) and vehicle (n=5). Each mouse was given four 60-second trials per day for six consecutive days to find the hidden platform in a Morris water maze.
Wild-type mice were also administered Compound 8 […]. Each mouse was given four 60-second trials per day for seven consecutive days to find the hidden platform in a Morris water maze.
Each mouse was given four 60-second trials per day for six consecutive days to find the hidden platform in a Morris water maze.
In addition, the effect of Compounds 4 and 8 on learning and memory of Alzheimer's Disease (AD) transgenic mice was evaluated. Six month and 9-14 month-old transgenic mice overexpressing a mutated form of the human amyloid precursor protein (mAPP mice) and their wild-type (non Tg) littermates were used in this study. […] Moreover, performance in a spatial MWM trial was evaluated using crossings over the platform area (an index of memory precision; Morris (1984) J. Neurosci. Methods 11:47-60), percent of time spent in target quadrant (an index of memory retrieval; Morris (1984) J. Neurosci. Methods 11:47-60), and swim paths.

[8] = Table 6, reduction of SAAC by ABAD, read-out: IC50
[9] = Table 6, reduction of SAAC by ABAD, read-out: Ki
[10] = Table 7, read-out: ABAD Enzymatic Activity IC50
[11] = Table 7, read-out: ABAD Enzymatic Activity Ki

Row | SMILES | ATP levels in Aβ-treated cells [1] | ATP levels, inhibitor alone [1] | calcium-mediated mitochondrial swelling [2] | mitochondrial swelling without calcium [2] | hippocampal long-term potentiation (LTP) [3] | IC50 [4, 8] [µM] | Ki [4, 9] [µM] | IC50 [4, 10] [µM] | Ki [4, 11] [µM] | inhibitory effect on SAAC reduction by ABAD ([4]; in words) | MTT reduction [5] | increased percentage of trypan blue-positive cells [6] | swim strategy used to locate the hidden platform [7] | latency to find the hidden platform [7] | number of crossings at the target location [7] | percent of time spent in the target quadrant [7] | also measured
1 | COC(=O)c1cc([C@H](Nc2nc3ccc(OC)cc3s2)P(=O)(OC)OC)ccc1O [Compound 4, Methyl 5-((dimethoxyphosphoryl)((6-methoxybenzo[d]thiazol-2-yl)amino)methyl)-2-hydroxybenzoate] | rescued ATP levels | comparable to cells treated with vehicle alone without Aβ | antagonized calcium-mediated mitochondrial swelling | did not affect mitochondrial swelling without calcium | impairments were diminished; also recorded: protective effects | 19.6 | 5.5 | 341 ± 68.7 | 96.6 ± 19.4 | modest inhibitory effect | did not exhibit decreased MTT reduction | did not exhibit | improvement in the swim strategy | significantly shorter latency | significantly more | significantly more | learning memory ([7]; 9-months old mAPP mice): improves learning memory
2 | COc1ccc2nc(N[C@@H](c3ccc(O)cc3)P(=O)(OC)OC)sc2c1 (racemic) [Compound 8, Dimethyl ((4-hydroxyphenyl)((6-methoxybenzo[d]thiazol-2-yl)amino)methyl)phosphonate] | rescued ATP levels | comparable to cells treated with vehicle alone without Aβ | antagonized calcium-mediated mitochondrial swelling | did not affect mitochondrial swelling without calcium | impairments were diminished; also recorded: protective effects | 259 | 70.6 | 52.7 | 14.9 | most potent inhibitory effect | did not exhibit decreased MTT reduction | did not exhibit | improvement in the swim strategy | significantly shorter latency | significantly more | significantly more | learning memory ([7]; 6-months old mAPP mice): improves learning memory; learning memory ([7]; 9-14-months old mAPP mice): improves learning memory
3 | COc1ccc2nc(N[C@@H](c3ccc(F)cc3)P(=O)(OC)OC)sc2c1 [Compound 15, Dimethyl ((4-fluorophenyl)((6-methoxybenzo[d]thiazol-2-yl)amino)methyl)phosphonate] | rescued ATP levels | comparable to cells treated with vehicle alone without Aβ | antagonized calcium-mediated mitochondrial swelling | did not affect mitochondrial swelling without calcium |  |  |  | 1260 ± 199 | 356 ± 56.1 |  |  |  |  |  |  |  | inhibition of SAAC reduction by ABAD ([4]; at 10 μM): did not inhibit; inhibitory effect on SAAC reduction by ABAD ([4]; at 100 or 400 μM): slight inhibitory effect
